# Literature values in US20060188529A1 (priority 2004, published 2006).
# Test system: apo EKO mice
# [1] = fenofibrate added to phytosterols
compound,measurement,setting,value
"CC(C)OC(=O)C(C)(C)Oc1ccc(C(=O)c2ccc(Cl)cc2)cc1 [fenofibrate, 2-[4-(4-chlorobenzoyl)phenoxy]-2-methyl-propanoic acid, 1-methylethyl ester]",effect on plasma triglyceride levels,combination of fenofibrate to phytosterols,no effect
same,decrease of HDL cholesterol concentrations,[1],50%
same,increase of plasma total cholesterol levels,[1],> 50%
